The source of these data is US11091497B2, “Pyrano[3,4-b]pyrazine kappa opioid receptor ligands for treating addiction, pruritus, pain, and inflammation” (The Rockefeller University, priority 2017, dated 2021).

The target of assay [1] is T1, kappa opioid receptor (PathHunter U2OS hOPRK1 membranes) (Homo sapiens, UniProt P41145).
T1 construct: host or cells: U2OS (PathHunter U2OS hOPRK1 β-arrestin cell line)
Description: Tritiated U69,593 binding for KOP-R membranes. As to the method:
Tritiated U69,593 binding for KOP-R membranes; tritiated DAMGO binding for MOP-R membranes; and tritiated DPDPE binding for DOP-R membranes:
(§1) Membranes from cells stably expressing kappa, mu or delta opioid receptor constructs (PathHunter U2OS hOPRK1, CHO-K1 rOPRM1 and CHO-K1 OPRD1 β-arrestin cell line, DiscoverX, Fremont, Calif., USA) were used. Cells were scraped from tissue culture plates, homogenized with a tissue tearor homogenizer in membrane buffer (10 mM Tris, 100 mM NaCl, and 1 mM EDTA; pH 7.4), and centrifuged at 20,000 g for 30 minutes at 4° C. and frozen at −80° C. until use. Prior to use, the pellets were resuspended in binding buffer (50 mm Tris, 100 mm NaCl, pH 7.4), homogenized with a dounce homogenizer and […] incubated with 1.0 nM of the appropriate tritiated ligand ([^3H]U69,593, [^3H]DAMGO or [^3H]DPDPE for kappa, mu or delta binding, respectively) and the appropriate concentration of compound for 60 minutes at 30° C. Membranes with bound tritiated ligand were collected on Whatman GF/B filter paper (Brandel, Gaithersburg, Md., USA) utilizing a Brandel harvester. Bound tritiated ligand was quantified using a TriCarb-2900TR scintillation counter (Packard, Downers Grove, Ill., USA) following addition of 4 ml ReadySafe scintillation fluid (Beckman Coulter, Indianapolis, Ind., USA). Compiled data for each compound was normalized to the maximal binding in the absence of compound, with non-specific binding subtracted. Curve fitting was done in Microcal Origin 17.0 software using logistic sigmoidal fit, to determine IC50. GTPgammaS Membranes from U2OS cells stably expressing human kappa opioid receptors were used. Cells were scraped from tissue culture plates, homogenized with a tissue tearor homogenizer in membrane buffer (10 mM Tris, 100 mM NaCl, and 1 mM EDTA; pH 7.4), and centrifuged at 20,000 g for 30 minutes at 4° C. and frozen at −80° C. until use. Prior to use, the pellets were resuspended in assay buffer (50 mm Tris, 100 mm NaCl, 5 mM MgCl2, and 1 mM EDTA; pH 7.4) and homogenized with a dounce homogenizer and 50 μg incubated with 0.1 nM [35 S]GTPγS, 10 nM GDP, and the appropriate concentration of agonist for 20 minutes at 30° C. To test inhibition, all samples were incubated with 100 nM U69,593 as well as the appropriate concentration of compound. Membranes with bound [35 S]GTPγS were collected on Whatman GF/B filter paper (Brandel, Gaithersburg, Md., USA) utilizing a Brandel harvester. Bound [35 S]GTPγS was quantified using a TriCarb-2900TR scintillation counter (Packard, Downers Grove, Ill., USA) following addition of 4 mL ReadySafe scintillation fluid (Beckman Coulter, Indianapolis, Ind., USA). […] NA indicates not applicable. For each compound, curve fitting was done in Microcal Origin 17.0 software using logistic sigmoidal fit, to determine EC50 and maximal percent stimulation, which in turn was normalized to the maximal percent stimulation of the test full agonist compound U69,593 to determine % efficacy. β2-Arrestin Experiments were conducted using the PathHunter Detection Kit obtained from DiscoverX. Cells stably expressing kappa, mu or delta opioid receptor constructs (PathHunter U2OS hOPRK1, CHO-K1 rOPRM1 and CHO-K1 OPRD1 β-arrestin cell line, DiscoverX, Fremont, Calif., USA) were plated in 96- or 384-well plates. Cells were stimulated with the compounds for 90 minutes at 37° C. To test inhibition, all samples were incubated with 100 nM U69,593 as well as the appropriate concentration of compound. Cells were then incubated for 60 minutes in the presence of galoctosidase substrate, yielding chemiluminescent product. Chemiluminescence was measured using a Synergy Neo microplate reader (BioTek, Winooski, Vt., USA). Antagonism assays were done in the same manner, in the presence of 300 nM U69,593, 1 μM DAMGO or 1 μM DPDPE for KOP-R, MOP-R or DOP-R assays, respectively. […] NA indicates not applicable. […]

Assay [2] concerns the target T2, human kappa opioid receptors (Homo sapiens, UniProt P41145).
T2 construct: expressed in transfected cells; host or cells: U2OS
Put plainly: [35S]GTPγS stimulation, membranes from U2OS cells. The class given is biochemical. The settings on record: for Emax: read-out: GTPγS stimulation % efficacy. The protocol:
Membranes from cells stably expressing kappa, mu or delta opioid receptor constructs (PathHunter U2OS hOPRK1, CHO-K1 rOPRM1 and CHO-K1 OPRD1 β-arrestin cell line, DiscoverX, Fremont, Calif., USA) were used. Cells were scraped from tissue culture plates, homogenized with a tissue tearor homogenizer in membrane buffer (10 mM Tris, 100 mM NaCl, and 1 mM EDTA; pH 7.4), and centrifuged at 20,000 g for 30 minutes at 4° C. and frozen at −80° C. until use. Prior to use, the pellets were resuspended in binding buffer (50 mm Tris, 100 mm NaCl, pH 7.4), homogenized with a dounce homogenizer and […] incubated with 1.0 nM of the appropriate tritiated ligand ([^3H]U69,593, [^3H]DAMGO or [^3H]DPDPE for kappa, mu or delta binding, respectively) and the appropriate concentration of compound for 60 minutes at 30° C. Membranes with bound tritiated ligand were collected on Whatman GF/B filter paper (Brandel, Gaithersburg, Md., USA) utilizing a Brandel harvester. Bound tritiated ligand was quantified using a TriCarb-2900TR scintillation counter (Packard, Downers Grove, Ill., USA) following addition of 4 ml ReadySafe scintillation fluid (Beckman Coulter, Indianapolis, Ind., USA). Compiled data for each compound was normalized to the maximal binding in the absence of compound, with non-specific binding subtracted. Curve fitting was done in Microcal Origin 17.0 software using logistic sigmoidal fit, to determine IC50. GTPgammaS Membranes from U2OS cells stably expressing human kappa opioid receptors were used. Cells were scraped from tissue culture plates, homogenized with a tissue tearor homogenizer in membrane buffer (10 mM Tris, 100 mM NaCl, and 1 mM EDTA; pH 7.4), and centrifuged at 20,000 g for 30 minutes at 4° C. and frozen at −80° C. until use. Prior to use, the pellets were resuspended in assay buffer (50 mm Tris, 100 mm NaCl, 5 mM MgCl2, and 1 mM EDTA; pH 7.4) and homogenized with a dounce homogenizer and 50 μg incubated with 0.1 nM [35 S]GTPγS, 10 nM GDP, and the appropriate concentration of agonist for 20 minutes at 30° C. To test inhibition, all samples were incubated with 100 nM U69,593 as well as the appropriate concentration of compound. Membranes with bound [35 S]GTPγS were collected on Whatman GF/B filter paper (Brandel, Gaithersburg, Md., USA) utilizing a Brandel harvester. Bound [35 S]GTPγS was quantified using a TriCarb-2900TR scintillation counter (Packard, Downers Grove, Ill., USA) following addition of 4 mL ReadySafe scintillation fluid (Beckman Coulter, Indianapolis, Ind., USA). […] For each compound, curve fitting was done in Microcal Origin 17.0 software using logistic sigmoidal fit, to determine EC50 and maximal percent stimulation, which in turn was normalized to the maximal percent stimulation of the test full agonist compound U69,593 to determine % efficacy. β2-Arrestin Experiments were conducted using the PathHunter Detection Kit obtained from DiscoverX. Cells stably expressing kappa, mu or delta opioid receptor constructs (PathHunter U2OS hOPRK1, CHO-K1 rOPRM1 and CHO-K1 OPRD1 β-arrestin cell line, DiscoverX, Fremont, Calif., USA) were plated in 96- or 384-well plates. Cells were stimulated with the compounds for 90 minutes at 37° C. To test inhibition, all samples were incubated with 100 nM U69,593 as well as the appropriate concentration of compound. Cells were then incubated for 60 minutes in the presence of galoctosidase substrate, yielding chemiluminescent product. Chemiluminescence was measured using a Synergy Neo microplate reader (BioTek, Winooski, Vt., USA). Antagonism assays were done in the same manner, in the presence of 300 nM U69,593, 1 μM DAMGO or 1 μM DPDPE for KOP-R, MOP-R or DOP-R assays, respectively.
(GTPγS resists hydrolysis and so accumulates on activated G proteins.)

The target in assay [3] is T3, kappa opioid receptor (PathHunter U2OS hOPRK1 β-arrestin cell line) (Homo sapiens, UniProt P41145).
T3 construct: host or cells: U2OS (PathHunter U2OS hOPRK1 β-arrestin cell line)
Description: β-arrestin coupling (PathHunter Detection Kit). The class given is cell-based. The settings on record: for β-arrestin coupling % efficacy: maximal, normalized to U69,593; for β-arrestin coupling % efficacy / β-arrestin coupling EC50: No stim = no stimulation at highest dose tested, 10,000 nM; for Emax at 10 µM: U2OS; for β-arrestin coupling EC50: 90 minutes at 37° C. The protocol: as §1

The mark [4] stands for this setting: 1.0 nM [3H]U69,593, 60 minutes at 30° C., read-out: Binding IC50.
Setting [5] is: read-out: β-arrestin coupling % efficacy.

Read-outs that look alike come from different tables or passages of the source.

T1 sequence (P41145 whole entry): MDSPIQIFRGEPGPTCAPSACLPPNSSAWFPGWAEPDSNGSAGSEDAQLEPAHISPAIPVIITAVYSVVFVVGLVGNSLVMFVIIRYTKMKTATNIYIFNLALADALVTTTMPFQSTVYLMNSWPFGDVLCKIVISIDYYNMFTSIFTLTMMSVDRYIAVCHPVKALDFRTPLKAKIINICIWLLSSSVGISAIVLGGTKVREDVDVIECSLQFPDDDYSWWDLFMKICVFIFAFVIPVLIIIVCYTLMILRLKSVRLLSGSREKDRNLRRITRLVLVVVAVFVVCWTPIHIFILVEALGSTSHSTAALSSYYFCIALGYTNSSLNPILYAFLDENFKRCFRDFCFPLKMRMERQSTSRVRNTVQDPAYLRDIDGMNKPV
T2 sequence (P41145 whole entry): as above
T3 sequence (P41145 whole entry): as above

For the compound `O=C(Cc1cccc(Cl)c1)N1CCN[C@@H]2COC[C@H](N3CCCC3)[C@H]21` (racemic) [Example 5A24], in assay [1] (setting [4]), the IC50 was found to be 251 nM. Also, in assay [2], the EC50 worked out at 213 nM and the Emax was 64%. In addition, in assay [3], the “β-arrestin coupling % efficacy” value is on record as “No stim”.
In the case of `O=C(Cc1ccc(F)c(Cl)c1)N1CCN[C@@H]2COC[C@H](N3CCCC3)[C@H]21` (racemic) [Example 5A25], the IC50 in assay [1] (setting [4]) came to 249 nM. In addition, in assay [2], the EC50 worked out at 571 nM and the Emax was determined as 93%. For the same compound, in assay [3], the EC50 is 13600 nM. Further, the Emax at 10 µM in assay [3] (setting [5]) is 29%.
For `O=C(Cc1cccc(C(F)(F)F)c1)N1CCN[C@@H]2COC[C@H](N3CCCC3)[C@H]21` (racemic) [Example 5A26] the same measures were 112 nM, 130 nM, 108%, 3260 nM and 42%.
On to `O=C(Cc1cc(Cl)cc(Cl)c1)N1CCN[C@@H]2COC[C@H](N3CCCC3)[C@H]21` (racemic) [Example 5A32], for which the IC50 in assay [1] (setting [4]) was 410 nM. In assay [2], the EC50 was 464 nM and the Emax is 66.5%. In addition, in assay [3], the “β-arrestin coupling EC50” value was “No stim” and the “β-arrestin coupling % efficacy” value is given as “No stim”.
For the compound `Cc1ccc(CC(=O)N2CCN[C@@H]3COC[C@H](N4CCCC4)[C@H]32)cc1C` (racemic) [Example 5A40], the IC50 in assay [1] (setting [4]) was 719 nM. Moreover, in assay [2], the EC50 stood at 1700 nM and the Emax came out at 111%. In assay [3], the “β-arrestin coupling EC50” value is given as “No stim” and the “β-arrestin coupling % efficacy” value is “No stim”.
Consider `CS(=O)(=O)N1CCN(C(=O)Cc2ccc(Cl)c(Cl)c2)[C@H]2[C@H]1COC[C@@H]2N1CCCC1` (racemic) [Example 5A44], for which, in assay [1], the IC50 was found to be 19 nM. For the same compound, the EC50 in assay [2] came out at 6.7 nM; in assay [3], 6200 nM. The Emax in assay [2] worked out at 88%. Further, in assay [3] (setting [5]), the Emax at 10 µM was 55%.
For `O=C(Cc1ccc(Cl)c(C(F)(F)F)c1)N1CCN[C@@H]2COC[C@H](N3CCCC3)[C@H]21` (racemic) [Example 5A46], the IC50 in assay [1] came out at 15 nM. In assay [2], the EC50 was 6.3 nM and the Emax is 131%. In addition, the Emax at 10 µM in assay [3] (read-out: β-arrestin coupling % efficacy at 10 μM) is 100%.
In the case of `Cc1ccc(CC(=O)N2CCN[C@@H]3COC[C@H](N4CCCC4)[C@H]32)cc1C(F)(F)F` (racemic) [Example 5A47], the IC50 in assay [1] came out at 31 nM. For the same compound, in assay [2], the EC50 was determined as 9 nM and the Emax was 84%. In addition, the EC50 in assay [3] was found to be 4900 nM. The Emax at 10 µM in assay [3] (setting [5]) came out at 78%.
For the compound `O=C(Cc1cccc(Cl)c1Cl)N1CCN[C@@H]2COC[C@H](N3CCCC3)[C@H]21` (racemic) [Example 5A48], the IC50 in assay [1] (setting [4]) turned out to be 1040 nM. Moreover, in assay [2], the EC50 was determined as 21800 nM and the Emax amounted to 181%. In assay [3], the “β-arrestin coupling % efficacy” value is given as “No stim”.
For `O=C(Cc1ccc(C(F)(F)F)cc1)N1CCN[C@@H]2COC[C@H](N3CCCC3)[C@H]21` (racemic) [Example 5A49], the IC50 in assay [1] (setting [4]) turned out to be 102 nM. In addition, in assay [2], the EC50 was 109 nM and the Emax is 69%. In addition, in assay [3], the EC50 came out at 11000 nM. Further, the Emax at 10 µM in assay [3] (setting [5]) came out at 36%.
In the case of `CN(CC1CC1)[C@H]1COC[C@H]2NCCN(C(=O)Cc3ccc(Cl)c(Cl)c3)[C@@H]21` (racemic) [Example 5A50], the half-inhibitory concentration (IC50) in assay [1] is 297 nM. Further, in assay [2], the EC50 was found to be 93 nM and the Emax was found to be 79%. The “β-arrestin coupling % efficacy” value in assay [3] is “No stim”.
`CN(C)[C@H]1COC[C@H]2NCCN(C(=O)Cc3ccc(Cl)c(Cl)c3)[C@@H]21` (racemic) [Example 5A51]: the IC50 in assay [1] (setting [4]) turned out to be 120 nM. In assay [2], the concentration giving a half-maximal response (EC50) was found to be 108 nM and the Emax is 71%. In addition, in assay [3], the “β-arrestin coupling % efficacy” value is recorded as “No stim”.
For the compound `O=C(Cc1ccc(Cl)c(Cl)c1)N1CCN(S(=O)(=O)C2CC2)[C@@H]2COC[C@H](N3CCCC3)[C@H]21` (racemic) [Example 5A52], the IC50 in assay [1] was 5.1 nM. In assay [2], the EC50 was 3 nM and the Emax is 101%. In addition, in assay [3], the EC50 amounted to 3300 nM. Further, in assay [3] (setting [5]), the Emax at 10 µM amounted to 79%.

In general, IC50 refers to the concentration needed to halve the response being measured. Usually EC50 stands for the concentration at which the effect is half-maximal.
